According to publication PMC6437697 (Journal of Medicinal Chemistry, 2019):

What was measured:
Assay in all cases: KINOMEscan
Assay type in all cases: binding
Conditions in all cases: read-out: % control activity remaining
TAOK1 = target: T1, TAOK1 (Homo sapiens, UniProt Q7L7X3)
T1 construct: purchased Eurofins DiscoverX KINOMEscan
T1 sequence (Q7L7X3 1-1001): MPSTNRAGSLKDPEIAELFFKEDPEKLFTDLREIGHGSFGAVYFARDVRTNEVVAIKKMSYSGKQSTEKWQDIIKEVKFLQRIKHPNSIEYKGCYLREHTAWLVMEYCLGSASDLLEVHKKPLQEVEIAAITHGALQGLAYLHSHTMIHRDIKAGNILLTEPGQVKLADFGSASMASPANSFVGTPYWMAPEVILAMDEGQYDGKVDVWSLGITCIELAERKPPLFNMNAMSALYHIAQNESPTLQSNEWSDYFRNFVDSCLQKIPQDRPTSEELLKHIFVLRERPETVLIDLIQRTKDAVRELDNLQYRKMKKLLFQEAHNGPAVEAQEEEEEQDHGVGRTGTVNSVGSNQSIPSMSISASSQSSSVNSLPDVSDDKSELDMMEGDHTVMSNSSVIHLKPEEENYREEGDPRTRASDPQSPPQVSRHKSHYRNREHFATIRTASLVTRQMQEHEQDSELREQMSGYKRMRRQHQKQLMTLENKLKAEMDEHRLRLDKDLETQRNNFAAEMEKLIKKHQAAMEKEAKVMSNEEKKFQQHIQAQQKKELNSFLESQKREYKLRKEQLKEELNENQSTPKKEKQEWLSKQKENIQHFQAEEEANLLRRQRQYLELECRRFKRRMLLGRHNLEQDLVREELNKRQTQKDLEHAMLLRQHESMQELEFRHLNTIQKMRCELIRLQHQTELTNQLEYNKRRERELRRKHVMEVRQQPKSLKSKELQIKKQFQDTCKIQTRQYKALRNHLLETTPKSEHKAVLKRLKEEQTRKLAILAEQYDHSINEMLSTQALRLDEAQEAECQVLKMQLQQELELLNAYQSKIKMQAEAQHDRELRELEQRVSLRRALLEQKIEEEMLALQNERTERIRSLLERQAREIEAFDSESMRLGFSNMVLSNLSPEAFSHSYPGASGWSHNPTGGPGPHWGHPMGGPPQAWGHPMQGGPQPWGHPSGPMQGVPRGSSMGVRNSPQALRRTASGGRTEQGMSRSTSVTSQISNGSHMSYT

FLT3(R834Q) = target: T2, FLT3(R834Q) (Homo sapiens, UniProt P36888, R834Q)
T2 construct: purchased Eurofins DiscoverX KINOMEscan
T2 sequence (P36888 27-993 R834Q): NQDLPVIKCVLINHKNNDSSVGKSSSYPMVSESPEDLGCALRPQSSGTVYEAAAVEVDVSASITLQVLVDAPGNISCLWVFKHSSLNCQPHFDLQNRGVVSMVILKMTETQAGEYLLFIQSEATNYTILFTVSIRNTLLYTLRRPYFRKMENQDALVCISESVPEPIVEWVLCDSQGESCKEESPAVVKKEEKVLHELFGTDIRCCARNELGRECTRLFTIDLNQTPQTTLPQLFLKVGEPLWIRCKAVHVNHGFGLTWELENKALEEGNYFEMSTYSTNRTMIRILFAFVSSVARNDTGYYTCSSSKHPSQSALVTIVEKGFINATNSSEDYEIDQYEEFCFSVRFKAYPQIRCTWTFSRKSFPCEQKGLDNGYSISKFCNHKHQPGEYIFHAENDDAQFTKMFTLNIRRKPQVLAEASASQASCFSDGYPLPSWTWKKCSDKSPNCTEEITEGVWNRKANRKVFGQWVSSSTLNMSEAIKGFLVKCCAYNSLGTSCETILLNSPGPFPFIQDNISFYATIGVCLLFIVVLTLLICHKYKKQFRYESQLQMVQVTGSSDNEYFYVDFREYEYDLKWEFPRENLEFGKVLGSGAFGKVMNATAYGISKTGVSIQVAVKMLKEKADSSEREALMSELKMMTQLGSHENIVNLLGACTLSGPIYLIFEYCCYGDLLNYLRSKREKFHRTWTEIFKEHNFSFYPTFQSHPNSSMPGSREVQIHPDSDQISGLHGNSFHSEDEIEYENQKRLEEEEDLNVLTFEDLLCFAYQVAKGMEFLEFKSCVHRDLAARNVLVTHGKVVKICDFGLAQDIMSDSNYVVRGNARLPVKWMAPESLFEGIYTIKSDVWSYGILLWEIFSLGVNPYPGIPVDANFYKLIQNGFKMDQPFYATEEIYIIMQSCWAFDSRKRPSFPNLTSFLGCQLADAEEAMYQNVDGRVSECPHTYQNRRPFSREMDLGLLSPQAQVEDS

JNK2 = target: T3, JNK2 (Homo sapiens, UniProt P45984)
T3 construct: purchased Eurofins DiscoverX KINOMEscan

ULK2 = target: T4, ULK2 (Homo sapiens, UniProt Q8IYT8)
T4 construct: purchased Eurofins DiscoverX KINOMEscan
T4 sequence (Q8IYT8 1-1036): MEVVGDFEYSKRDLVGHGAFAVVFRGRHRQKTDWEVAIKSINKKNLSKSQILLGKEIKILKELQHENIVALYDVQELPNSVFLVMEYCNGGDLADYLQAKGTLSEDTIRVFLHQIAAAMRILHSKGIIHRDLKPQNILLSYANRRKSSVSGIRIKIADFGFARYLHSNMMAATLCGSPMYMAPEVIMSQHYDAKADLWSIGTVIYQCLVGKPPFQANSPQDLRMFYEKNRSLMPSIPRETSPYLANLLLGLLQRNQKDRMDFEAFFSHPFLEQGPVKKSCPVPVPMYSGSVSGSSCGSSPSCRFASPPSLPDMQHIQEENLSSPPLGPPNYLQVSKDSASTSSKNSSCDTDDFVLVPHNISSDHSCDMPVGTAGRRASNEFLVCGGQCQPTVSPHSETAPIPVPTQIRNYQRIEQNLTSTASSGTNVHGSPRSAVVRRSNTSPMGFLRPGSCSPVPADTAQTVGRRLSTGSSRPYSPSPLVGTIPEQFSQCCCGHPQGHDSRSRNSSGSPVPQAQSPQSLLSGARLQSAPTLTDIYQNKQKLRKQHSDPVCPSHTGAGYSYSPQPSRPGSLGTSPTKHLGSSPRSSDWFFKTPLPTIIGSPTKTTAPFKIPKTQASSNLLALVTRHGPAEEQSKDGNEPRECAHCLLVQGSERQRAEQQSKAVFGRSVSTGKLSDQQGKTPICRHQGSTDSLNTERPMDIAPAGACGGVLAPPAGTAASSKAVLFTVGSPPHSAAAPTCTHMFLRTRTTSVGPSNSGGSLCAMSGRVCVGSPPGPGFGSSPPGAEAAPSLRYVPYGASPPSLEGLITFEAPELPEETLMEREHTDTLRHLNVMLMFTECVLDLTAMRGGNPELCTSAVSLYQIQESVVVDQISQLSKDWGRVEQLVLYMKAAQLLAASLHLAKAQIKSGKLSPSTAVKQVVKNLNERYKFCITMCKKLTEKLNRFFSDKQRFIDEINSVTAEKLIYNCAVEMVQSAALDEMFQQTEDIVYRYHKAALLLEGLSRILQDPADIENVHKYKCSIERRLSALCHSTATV

T3 sequence (P45984 whole entry): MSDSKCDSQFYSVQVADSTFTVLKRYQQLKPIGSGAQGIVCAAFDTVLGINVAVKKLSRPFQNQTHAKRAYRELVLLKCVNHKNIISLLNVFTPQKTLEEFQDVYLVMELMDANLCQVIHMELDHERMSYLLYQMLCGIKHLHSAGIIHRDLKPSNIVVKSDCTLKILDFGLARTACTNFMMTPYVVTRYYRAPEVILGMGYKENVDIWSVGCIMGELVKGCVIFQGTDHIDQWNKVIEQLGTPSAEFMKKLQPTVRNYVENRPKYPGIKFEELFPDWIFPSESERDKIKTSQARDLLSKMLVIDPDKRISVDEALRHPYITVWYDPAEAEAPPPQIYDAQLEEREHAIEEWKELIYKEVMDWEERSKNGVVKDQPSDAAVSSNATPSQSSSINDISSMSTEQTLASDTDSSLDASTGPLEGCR

SMILES | remaining binding at 1 µM (TAOK1) | remaining binding at 1 µM (FLT3(R834Q)) | remaining binding at 1 µM (JNK2) | remaining binding at 1 µM (ULK2)
Clc1cc(NCC2CC2)c2ncc(-c3ccc4[nH]ncc4c3)n2n1 [compound 2, 6-Chloro-N-(cyclopropylmethyl)-3-(1H-indazol-5-yl)imidazo[1,2-b]pyridazin-8-amine] | 93% | 94% | 91% | 98%
O=C(CN1CCOCC1)N[C@H]1CC[C@H](Nc2cc(Cl)nn3c(-c4ccc5[nH]ncc5c4)cnc23)CC1 [compound 26] | 85% | 0.7% | 80% | 94%
CN1CCC(CNc2cc(Cl)nn3c(-c4cc5nc(Nc6ccccc6)[nH]c5cc4F)cnc23)CC1 [compound 31, 6-Chloro-3-(6-fluoro-2-(phenylamino)-1H-benzo[d]imidazol-5-yl)-N-((1-methylpiperidin-4-yl)methyl)imidazo[1,2-b]pyridazin-8-amine] | 75% | 100% | 75% | 83%
